The source of these data is paper PMC12275138, “Identification of glycosylated flavonoids as new physiological ligands of the hazel allergen Cor a 1: Complex structures reveal different binding orientation and specificity of mono- and disaccharide derivatives” (Food Chemistry: X, 2025).

Molecules are shown by their SMILES.

One experiment concerns the target T1, Cor a 1.0101 (Corylus avellana, UniProt Q08407).
T1 construct: recombinant from E. coli, 15N labelled
T1 sequence (Q08407 2-160): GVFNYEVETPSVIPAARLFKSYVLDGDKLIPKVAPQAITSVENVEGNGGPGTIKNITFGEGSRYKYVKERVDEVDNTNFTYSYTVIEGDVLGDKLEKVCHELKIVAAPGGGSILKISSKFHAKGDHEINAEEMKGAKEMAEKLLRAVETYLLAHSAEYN
Briefly: 1H, […] HSQC screening. To be noted: 60 µM protein, at least 5-fold ligand excess, pH 7.5. In kind it is binding.

The next experiment concerns the target T2, Cor a 1.0302 (Corylus avellana, UniProt A0AA49EHN2).
T2 construct: recombinant from E. coli, 15N labelled
T2 sequence (A0AA49EHN2 1-159): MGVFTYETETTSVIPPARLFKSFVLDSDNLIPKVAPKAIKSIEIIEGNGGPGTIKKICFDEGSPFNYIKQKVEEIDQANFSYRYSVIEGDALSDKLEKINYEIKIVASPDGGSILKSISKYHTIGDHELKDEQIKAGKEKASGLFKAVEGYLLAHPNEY
Nature of the experiment: 1H, […] HSQC screening. The experiment is classed as binding. The note with it: 60 µM protein, at least 5-fold ligand excess, pH 7.5.

As to `O=c1c(O[C@@H]2O[C@H](CO)[C@@H](O)[C@H](O)[C@H]2O)c(-c2ccc(O)c(O)c2)oc2cc(O)cc(O)c12` [Q3OGlc], the “1H,15N HSQC screening” value on Cor a 1.0101 was “All the other isoallergens bound to Q3OGlc, Q3OGal, and K3OR”; on Cor a 1.0302 it was “All the other isoallergens bound to Q3OGlc, Q3OGal, and K3OR”. For the compound `C[C@@H]1O[C@@H](Oc2c(-c3ccc(O)cc3)oc3cc(O)cc(O)c3c2=O)[C@H](O)[C@H](O)[C@H]1O` [K3OR], the “1H,15N HSQC screening” value on Cor a 1.0101 is “All the other isoallergens bound to Q3OGlc, Q3OGal, and K3OR”.
